# From US7652022B2, “Diaryl urea derivatives useful for the treatment of protein kinase dependent diseases” (Novartis AG, priority 2002, dated 2010)
# Columns and labels:
# [1] = biological target: T1, c-Abl kinase (His-tagged kinase domain of c-Abl) (Homo sapiens, UniProt P00519); assay: c-Abl protein-tyrosine kinase in vitro enzyme filter binding assay; type: biochemical; conditions: % inhibition at 10 μM
# T1 construct: The His-tagged kinase domain of c-Abl is cloned and expressed in the baculovirus/Sf9 system; His tag; made in house; host or cells: Sf9 insect cells (baculovirus)
# T1 sequence (P00519 242-493 limits assumed): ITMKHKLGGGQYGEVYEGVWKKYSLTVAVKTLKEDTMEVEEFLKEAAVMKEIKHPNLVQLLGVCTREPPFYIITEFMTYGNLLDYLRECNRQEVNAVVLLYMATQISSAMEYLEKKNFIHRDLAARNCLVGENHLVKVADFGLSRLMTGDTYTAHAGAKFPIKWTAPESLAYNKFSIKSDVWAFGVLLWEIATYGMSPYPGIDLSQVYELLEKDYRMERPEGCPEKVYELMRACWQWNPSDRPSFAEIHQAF
# Protocol: An in vitro enzyme assay is performed in 96-well plates as a filter binding assay as described by Geissler et al. in Cancer Res. 1992; 52:4492-4498, with the following modifications. The His-tagged kinase domain of c-Abl is cloned and expressed in the baculovirus/Sf9 system as described by Bhat et al. in J. Biol. Chem. 1997; 272:16170-16175. A protein of 37 kD (c-Abl kinase) is purified by a two-step procedure over a Cobalt metal chelate column followed by an anion exchange column with a yield of 1-2 mg/L of Sf9 cells (Bhat et al., reference cited). The purity of the c-Abl kinase is >90% as judged by SDS-PAGE after Coomassie blue staining. The assay contains (total volume of 30 μL): c-Abl kinase (50 ng), 20 mM Tris·HCl, pH 7.5, 10 mM MgCl2, 10 μM Na3VO4, 1 mM DTT and 0.06 μCi/assay [γ^33 P]-ATP (5 μM ATP) using 30 μg/mL poly-Ala,Glu,Lys,Tyr-6:2:5:1 (Poly-AEKY, Sigma P1152) in the presence of 1% DMSO. Reactions are terminated by adding 10 μL of 250 mM EDTA and 30 μL of the reaction mixture is transferred onto Immobilon-PVDF membrane (Millipore, Bedford, Mass., USA) previously soaked for 5 min with methanol, rinsed with water, then soaked for 5 min with 0.5% H3PO4 and mounted on vacuum manifold with disconnected vacuum source. After spotting all samples, vacuum is connected and each well rinsed with 200 μL 0.5% H3PO4. Membranes are removed and washed on a shaker with 0.5% H3PO4 (4 times) and once with ethanol. Membranes are counted after drying at ambient temperature, mounting in Packard TopCount 96-well frame, and addition of 10 μL/well of Microscint™ (Packard).
# Enzymatic (c-Abl, KDR, Flt3) data are given on Table 17 (% inhibition at 10 μM). (Measurements are made as described above in the general description).
# [2] = biological target: T2, human VEGF-R2 receptor (KDR) (Homo sapiens, UniProt P35968); assay: Inhibition of VEGF-induced VEGF-R2 (KDR) autophosphorylation in transfected CHO cells, sandwich ELISA; type: cell-based; conditions: % inhibition at 10 μM
# T2 construct: expressed in transfected cells
# T2 sequence (P35968 20-1356): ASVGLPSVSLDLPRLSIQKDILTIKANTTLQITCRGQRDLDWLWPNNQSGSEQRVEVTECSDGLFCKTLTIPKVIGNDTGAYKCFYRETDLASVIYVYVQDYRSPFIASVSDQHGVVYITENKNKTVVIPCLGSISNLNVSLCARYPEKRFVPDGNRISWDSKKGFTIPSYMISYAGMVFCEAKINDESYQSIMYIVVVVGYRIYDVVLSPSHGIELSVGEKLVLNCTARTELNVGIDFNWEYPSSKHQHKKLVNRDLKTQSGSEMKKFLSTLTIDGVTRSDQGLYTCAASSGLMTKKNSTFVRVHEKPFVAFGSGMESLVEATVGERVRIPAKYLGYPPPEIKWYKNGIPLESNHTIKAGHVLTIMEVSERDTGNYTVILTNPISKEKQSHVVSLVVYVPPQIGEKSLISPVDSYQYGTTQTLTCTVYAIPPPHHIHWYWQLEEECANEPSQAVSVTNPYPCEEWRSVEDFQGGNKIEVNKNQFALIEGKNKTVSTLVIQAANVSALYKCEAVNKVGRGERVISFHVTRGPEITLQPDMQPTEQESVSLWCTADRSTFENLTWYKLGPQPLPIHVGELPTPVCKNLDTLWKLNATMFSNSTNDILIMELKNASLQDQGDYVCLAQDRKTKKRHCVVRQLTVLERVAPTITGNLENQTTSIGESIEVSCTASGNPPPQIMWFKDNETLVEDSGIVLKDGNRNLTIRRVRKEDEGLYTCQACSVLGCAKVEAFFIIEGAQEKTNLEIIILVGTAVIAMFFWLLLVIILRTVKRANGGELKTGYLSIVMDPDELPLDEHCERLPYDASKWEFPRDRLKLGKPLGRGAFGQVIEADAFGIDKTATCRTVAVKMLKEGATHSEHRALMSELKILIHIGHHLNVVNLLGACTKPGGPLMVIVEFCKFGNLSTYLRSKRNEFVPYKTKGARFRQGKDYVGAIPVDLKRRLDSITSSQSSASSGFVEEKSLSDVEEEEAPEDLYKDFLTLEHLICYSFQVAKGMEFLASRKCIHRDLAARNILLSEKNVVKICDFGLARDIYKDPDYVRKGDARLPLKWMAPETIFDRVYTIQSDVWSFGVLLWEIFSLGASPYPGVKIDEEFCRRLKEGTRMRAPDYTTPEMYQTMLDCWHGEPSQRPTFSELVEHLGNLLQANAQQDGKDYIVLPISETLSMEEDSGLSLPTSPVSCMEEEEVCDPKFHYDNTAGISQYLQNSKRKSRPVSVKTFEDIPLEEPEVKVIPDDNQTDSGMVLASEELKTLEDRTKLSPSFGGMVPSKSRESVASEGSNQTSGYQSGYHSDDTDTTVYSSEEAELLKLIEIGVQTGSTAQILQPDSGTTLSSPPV
# Protocol: The inhibition of VEGF-induced receptor autophosphorylation can be confirmed with a further in vitro experiments in cells such as transfected CHO cells, which permanently express human VEGF-R2 receptor (KDR), are seeded in complete culture medium (with 10% fetal calf serum=FCS) in 6-well cell-culture plates and incubated at 37° C. under 5% CO2 until they show about 80% confluency. The compounds to be tested are then diluted in culture medium (without FCS, with 0.1% bovine serum albumin) and added to the cells. (Controls comprise medium without test compounds). After two hours of incubation at 37° C., recombinant VEGF is added; the final VEGF concentration is 20 ng/ml. After a further five minutes incubation at 37° C., the cells are washed twice with ice-cold PBS (phosphate-buffered saline) and immediately lysed in 100 μl lysis buffer per well. The lysates are then centrifuged to remove the cell nuclei, and the protein concentrations of the supernatants are determined using a commercial protein assay (BIORAD). The lysates can then either be immediately used or, if necessary, stored at −20° C.
# The plates are then washed and the remaining free protein-binding sites are saturated with 3% TopBlock® (Juro, Cat. # TB232010) in phosphate buffered saline with Tween 20® (polyoxyethylen(20)sorbitane monolaurate, ICI/Uniquema) (PBST). The cell lysates (20 μg protein per well) are then incubated in these plates overnight at 4° C. together with an antiphosphotyrosine antibody coupled with alkaline phosphatase (PY20:AP from Zymed). […] The luminescence is measured in a Packard Top Count Microplate Scintillation Counter. The difference between the signal of the positive control (stimulated with VEGF) and that of the negative control (not stimulated with VEGF) corresponds to VEGF-induced VEGF-R2 phosphorylation (=100%). The activity of the tested substances is calculated as percent inhibition of VEGF-induced VEGF-R2 phosphorylation, wherein the concentration of substance that induces half the maximum inhibition is defined as the IC50 (inhibitory dose for 50% inhibition). […]
SMILES,c-Abl (% at 10 μM) [1] [%],KDR trans (% at 10 μM) [2] [%]
O=C(Nc1ccc(Oc2ccncc2)cc1)Nc1ccc(OCC(F)(F)F)c(C(F)(F)F)c1 [Example 10],98,100
"CCc1ccc(NC(=O)Cc2ccc(Oc3ccncc3)cc2)cc1 [Example 16, N-(4-pyridin-4-yl-oxy-phenyl)acetyl-(4-ethyl-phenyl)-amide]",66,99
Cc1ccc(NC(=O)Cc2ccc(Oc3ccncc3)cc2)cc1 [Example 17],18,96
CCCc1ccc(NC(=O)Nc2ccc(Cc3ccncc3)cc2)cc1 [Example 12],33,97
O=C(Nc1ccc(Oc2ccncc2)cc1)Nc1ccc(Br)c(C(F)(F)F)c1 [Example 9],100,92
CN(C(=O)Nc1cccc(C(F)(F)F)c1)c1ccc(Oc2ccncc2)cc1 [Example 6],75,100
Cc1ccc(NC(=O)Nc2ccc(Cc3ccncc3)cc2)cc1 [Example 14],26,97
O=C(Nc1cccc(C(F)(F)F)c1)N1CCCc2cc(Oc3ccncc3)ccc21 [Example 20],84,93
O=C(Nc1ccc(Cc2ccncc2)cc1)Nc1cccc(C(F)(F)F)c1 [Example 15],71,99
COc1cc(NC(=O)Nc2ccc(Oc3ccncc3)cc2)cc(C(F)(F)F)c1 [Example 11],95,100
O=C(Nc1ccc(Oc2cc(Nc3ccc(O)cc3)ncn2)cc1)Nc1ccc(OCC(F)(F)F)c(C(F)(F)F)c1 [Example 32],98,96
"O=C(Nc1cccc(C(F)(F)F)c1)N1CCc2cc(Oc3ccncc3)ccc21 [Example 19, 5(4-pyridyloxy)-N-(3-trifluoromethyl-phenyl)amino-carbonyl-2,3-dihydroindole]",92,86
CCCc1ccc(NC(=O)Cc2ccc(Oc3ccncc3)cc2)cc1 [Example 18],61,99
Cc1ccc(NC(=O)N(C)c2ccc(Oc3ccncc3)cc2)cc1 [Example 8],48,78
"O=C(Nc1ccc(Oc2cc(Cl)ncn2)cc1)Nc1cccc(C(F)(F)F)c1 [Example 21, N-(4-(6-Chloropyrimidin-4-yl)-oxyphenyl)-N′-(3-trifluoromethylphenyl)-urea]",70,100
CCc1ccc(NC(=O)N(C)c2ccc(Oc3ccncc3)cc2)cc1 [Example 5],46,99
Cc1cc(Oc2ccc(NC(=O)Nc3cccc(C(F)(F)F)c3)cc2)ccn1 [Example 30],100,98
Cc1ccc(NC(=O)Nc2ccc(Oc3ccncc3)cc2)cc1 [Example 4],59,99
CCCc1ccc(NC(=O)N(C)c2ccc(Oc3ccncc3)cc2)cc1 [Example 7],47,97
CCc1ccc(NC(=O)Nc2ccc(Cc3ccncc3)cc2)cc1 [Example 13],36,98
